Test results: article PMC3390344, “Antibacterial Activity and Mechanism of a Scorpion Venom Peptide Derivative In Vitro and In Vivo” (PLoS ONE, 2012)
Ends that are not written are not given here.

How the values were obtained:
[1] = system: methicillin-resistant coagulase-negative Staphylococcus (MRCNS) P1369; assay: microbe, parasite or virus in culture; assay type: cell-based; conditions: P1369, methicillin resistant (MRCNS) clinical isolate; repeated at least three times
Experimental: (§1) The MIC was determined via a microdilution assay in 96-well microtiter plates according to the broth microdilution guideline of Clinical and Laboratory Standards Institute (CLSI).

[2] = system: methicillin-resistant S. aureus (MRSA) P1374; assay: microbe, parasite or virus in culture; assay type: cell-based; conditions: P1374, methicillin resistant (MRSA) clinical isolate; repeated at least three times
Experimental: (§2) Clinical isolates were obtained from the 302nd military hospital of Beijing, China, including penicillin-resistant S. aureus (PRSA) P1383, penicillin-resistant S. epidermidis (PRSE) P1389, methicillin-resistant S. aureus (MRSA) P1381, P1386 and P1374, methicillin-resistant coagulase-negative Staphylococcus (MRCNS) P1369, and penicillin-sensitive S. epidermidis (PSSE) P1111.
as §1

[3] = system: methicillin-resistant S. aureus (MRSA) P1381; assay: microbe, parasite or virus in culture; assay type: cell-based; conditions: P1381, methicillin resistant (MRSA) clinical isolate; repeated at least three times
Experimental: as §2, §1

[4] = system: methicillin-resistant S. aureus (MRSA) P1386; assay: microbe, parasite or virus in culture; assay type: cell-based; conditions: P1386, methicillin resistant (MRSA) clinical isolate; repeated at least three times
Experimental: as §2, §1

[5] = system: penicillin-resistant S. aureus (PRSA) P1383; assay: microbe, parasite or virus in culture; assay type: cell-based; conditions: P1383, penicillin resistant (PRSA) clinical isolate; repeated at least three times
Experimental: as §2, §1

[6] = system: penicillin-resistant S. epidermidis (PRSE) P1389; assay: microbe, parasite or virus in culture; assay type: cell-based; conditions: P1389, penicillin resistant (PRSE) clinical isolate; repeated at least three times
Experimental: as §2, §1

[7] = system: penicillin-sensitive S. epidermidis (PSSE) P1111; assay: microbe, parasite or virus in culture; assay type: cell-based; conditions: P1111, penicillin sensitive (PSSE) clinical isolate; repeated at least three times
Experimental: as §2, §1

human red blood cells = assay: Hemolytic activity; assay type: cell-based; conditions: 37 °C, 1 h, absorbance at 570 nm, positive control 0.1% Triton X-100, method of Käber modified by Achmarine
Experimental: Figure 1 Screening, antimicrobial and hemolytic activities of Kn2-7 in vitro. (A) Multiple alignments of Kn2-7 and its seven derivatives. (B) Predicted secondary structure of Kn2-7 and its seven derivatives. (C) Antibacterial activity screening of Kn2-7 and its seven derivative peptides. (D) Hemolytic activity of Kn2-7. The hemolytic activities of the Kn2-7 and BmKn2 peptides were estimated by monitoring the increase in the absorbance at 570 nm after incubating human red blood cells with different peptide concentrations at 37 °C for 1 h. The positive control was 0.1% Triton X-100, and 0.85% saline was used as a blank. […] It is read as >100 for BmKn2, Kn2-3 and Kn2-4, and as 100 for Kn2-1, Kn2-2, Kn2-5 and Kn2-6.
The hemolytic activities of Kn2-7 and BmKn2 peptides were tested against human red blood cells. HC50 values were obtained according to the method of Käber, modified by Achmarine. Saline solution at a concentration of 0.85% was used as the negative control, and 0.1% Triton X-100 was used as the positive control.

M. luteus AB93113 = assay: MIC, broth microdilution (CLSI); assay type: cell-based, Micrococcus luteus; conditions: M. luteus AB93113, Gram-positive, 96-well
Experimental: S. aureus AB94004, S. aureus ATCC 25923, E. coli AB94012, E. coli ATCC 25922, Pseudomonas aeruginosa AB93066, Bacillus thuringiensis AB92037, Bacillus subtilis AB91021, and Micrococcus luteus AB93113 were purchased from the China Center of Type Culture Collection (CCTCC).
as §1

Biolayer interferometry = assay type: binding, E. coli; conditions: 10 µg/mL biotinylated peptide on biosensor tips, 500 µg/mL LPS, 10 mM HEPES pH 7.4, 0.14 M NaCl, 30°C
Experimental: Figure 7 Binding assay of Kn2-7 and LTA or LPS. (A) Interaction of 10 µg/ml of Kn2-7 with 500 µg/ml of LPS or 500 µg/mL of LTA. Curve A3 is LPS, curve B3 is LTA and curve C3 is buffer. (B) Interaction of 10 µg/mL of BmKn2 with 500 µg/mL of LPS or 500 µg/mL of LTA. Curve D3 is LPS, curve E3 is LTA and curve F3 is the buffer. (C) MICs of Kn2-7 and BmKn2 treated with LTA or LPS against S. aureus and E. coli.
Biolayer Interferometry (BLI) experiments were performed on OCT RED (FortéBio, Inc.). A total of 500 µg/mL of lipoteichoic acid from S. aureus (LTA, Sigma, L2515), lipopolysaccharides from E. coli (LPS, Sigma, L2880) or buffer (10 mM HEPES, pH 7.4 and 0.14 M NaCl) was dispensed into 96-well microtiter plates at a volume of 200 µl per well. The operating temperature was 30°C. Biosensor tips (FortéBio, Inc., Menlo Park, CA) were pre-wetted with the buffer for 60 seconds at baseline. Then, 10 µg/mL Biotin-Kn2-7 or Biotin-BmKn2 was loaded onto the biosensor tips for 900 seconds. Baseline 2 was subsequently established for 300 seconds. Dissociation of Kn2-7 or BmKn2 occurred for 900 seconds in the buffer. Data were generated automatically by the Octet® User Software (version 3.1) and were subsequently analyzed from the resultant text files using Excel 2000.

E. coli AB94012 = assay: LTA and LPS competition binding assay (MIC); assay type: cell-based; conditions: controls of the competition assay (Figure 7C): untreated peptide, or LTA / LPS alone
Experimental: To confirm the results of the BLI titrations, 250 µg/mL of Kn2-7 or BmKn2 was mixed with an equal volume of 1 mg/mL LTA or LPS. Then, the MICs of Kn2-7 or BmKn2 mixed with LTA against S. aureus and E. coli were measured. […] The MICs of Kn2-7 and BmKn2 treated with LTA against S. aureus were 25 and 12.5 µg/mL, respectively.
A total of 250 µg/mL of each peptide solution was mixed with an equal volume of 1 mg/mL of the LTA or LPS solution. Then, the MICs of BmKn2 and Kn2-7 treated with LTA or LPS against S. aureus AB94004 and E. coli AB94012 were measured.

Substance: FIGAIARLLSKIF-NH2 [BmKn2]
- MIC [1]: 12.5 µg/mL
- MIC [2]: 12.5 µg/mL
- MIC [3]: 12.5 µg/mL
- MIC [4]: 12.5 µg/mL
- MIC [5]: 12.5 µg/mL
- MIC [6]: 12.5 µg/mL
- MIC [7]: 6.25 µg/mL
- HC50 (hemolytic activity) (human red blood cells): 17.13 µg/mL
- MIC (M. luteus AB93113): 6.25 µg/mL

Substance: FIKRIARLLRKIF [Kn2-7]
- Binding to LPS (BLI) (Biolayer interferometry): able to bind to LPS
- MIC E.coli, substance alone (E. coli AB94012): 6.25 µg/mL
